# Experimental data: PMC3328449, “Inhibition of Diacylglycerol–Sensitive TRPC Channels by Synthetic and Natural Steroids” (PLoS ONE, 2012)
# “And” between values parts separate entries of the source, which are not always exact repeats. Equal entries are not always repeated.
# Tests used:
# [1] = target: T1, hTRPC6 (Homo sapiens, UniProt Q9Y210); experiment: Whole-cell patch clamp, AlF4- evoked TRPC6 currents; format: cell-based
# T1 construct: expressed in transfected cells
# T1 sequence (Q9Y210 1-931): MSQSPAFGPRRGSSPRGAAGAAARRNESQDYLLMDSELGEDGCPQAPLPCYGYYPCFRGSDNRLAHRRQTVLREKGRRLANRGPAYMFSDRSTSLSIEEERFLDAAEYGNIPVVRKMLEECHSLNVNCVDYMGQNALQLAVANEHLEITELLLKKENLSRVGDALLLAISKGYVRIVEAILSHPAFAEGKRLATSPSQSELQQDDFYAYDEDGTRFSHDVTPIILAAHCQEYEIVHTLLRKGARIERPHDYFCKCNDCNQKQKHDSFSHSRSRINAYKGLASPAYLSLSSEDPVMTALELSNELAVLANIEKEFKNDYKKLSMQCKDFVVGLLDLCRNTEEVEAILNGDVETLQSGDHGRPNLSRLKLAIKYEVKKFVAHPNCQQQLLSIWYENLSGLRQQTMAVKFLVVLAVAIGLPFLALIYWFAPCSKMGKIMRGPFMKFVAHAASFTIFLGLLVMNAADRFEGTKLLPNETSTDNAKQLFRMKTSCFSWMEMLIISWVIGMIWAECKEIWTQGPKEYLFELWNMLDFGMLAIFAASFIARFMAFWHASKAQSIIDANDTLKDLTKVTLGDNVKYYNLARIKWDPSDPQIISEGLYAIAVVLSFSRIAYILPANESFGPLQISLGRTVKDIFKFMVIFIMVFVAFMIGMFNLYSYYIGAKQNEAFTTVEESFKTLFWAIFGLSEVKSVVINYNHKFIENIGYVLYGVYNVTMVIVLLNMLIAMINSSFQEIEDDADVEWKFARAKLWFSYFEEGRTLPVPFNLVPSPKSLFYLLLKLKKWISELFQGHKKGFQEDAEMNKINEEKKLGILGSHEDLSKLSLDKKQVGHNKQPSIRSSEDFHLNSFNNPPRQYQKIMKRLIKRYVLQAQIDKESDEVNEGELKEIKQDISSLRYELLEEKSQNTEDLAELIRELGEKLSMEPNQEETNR
# Description: Cells were grown at 37°C in a humidified atmosphere (5% or 7% CO2) under standard cell culture conditions. Stable human embryonic kidney (HEK) cell lines expressing recombinant mTRPC4ß (GenBank accession number AAC05178); mTRPC5 (GenBank accession number NM_009428) or hTRPC6 (GenBank accession number AF080394) under the control of a tetracycline-inducible promoter were generated using the Flp-In T-Rex (FITR) system (Invitrogen, Karlsruhe, Germany). TRPC4/5/6 HEK-FITR cells were maintained in Dulbecco's modified eagle medium (DMEM, with glutaMAX I, 4.5 g/l glucose and […] sodium pyruvate) supplemented with 10% (v/v) fetal bovine serum (Biochrom, Berlin, Germany), 1 mM glutamine, 1 mM MEM sodium pyruvate, 40 µg/ml hygromycin (50 µg/ml for mTRPC5 HEK-FITR cells), and 15 µg/ml blasticidine HCl. Channel expression was induced by supplementing the growth medium for 18–24 h with 1 µg/ml doxycycline.
# The whole-cell patch clamp technique was employed to measure ion currents from single cells. […]
# (§1) Cells grown on poly-L-lysine-coated coverslips were continuously superfused with extracellular solution and substances were applied using an ALA BPS-8 perfusion system (ALA Scientific Instruments, Westbury, USA). […] Cells were held at −70 mV, and current-voltage (I–V) relationships were routinely measured every 2 or 3 s by applying voltage ramps (180 ms) from −100 mV to +80 mV. […]
# For statistical analysis, analysis of variance was performed with Origin 6.0 software (Microcal Software Inc., Northampton, USA). […] IC50 were calculated with SigmaPlot (Systat software, San Jose, USA) using the sigmoidal Hill-model: f = 100 (C^n/(IC50 ^n+C^n)); where f is the inhibition, C is the applied drug concentration and n is the Hill coefficient. The half maximal effective concentration (EC50) of norgestimate-induced vasorelaxation was calculated analogously with R = y0+y1C^n/(EC50 ^n+C^n); where R is relaxation, yo and y1 are constants, C is the applied drug concentration and n is the Hill coefficient. Averaged data is expressed as means ± SEM.
# [2] = test system: A7r5 cells; experiment: Whole-cell patch clamp, AVP-induced receptor-operated cation currents in A7r5 cells; format: cell-based; details: 10 µM, 100 nM AVP, measured at −70 mV, reversible, n = 8
# Description: A7r5 cells (ATCC, Rockville, USA) were maintained in DMEM (with glutaMAX I, 4.5 g/l glucose and […] sodium pyruvate), supplemented with 10% (v/v) fetal bovine serum (PAA, Pasching, Austria).
# The whole-cell patch clamp technique was employed to measure ion currents from single cells. Heat-polished patch pipettes with resistances of 2–4 MΩ were pulled from borosilicate glass capillaries (Hilgenberg, Malsfeld, Germany) using a DMZ-Universal puller (Zeitz-Instruments, Munich, Germany) and filled with standard intracellular solution containing: 120 mM CsOH, 120 mM gluconic acid, 2 mM MgCl2, 3 mM CaCl2, 5 mM Cs4-BAPTA, 10 mM HEPES (pH 7.4 adjusted with gluconic acid). For agonist-independent stimulation of TRPC currents the intracellular solution was supplemented with 30 µM AlCl3 and 10 mM NaF and cells were infused with AlF4 ^− through the patch pipette. AlF4 ^− is a non-specific activator of heterotrimeric G proteins that consequently leads to increased phospholipase C activity and TRPC channel activation. […]
# as §1
compound,measurement,setting,value
C#C[C@]1(OC(C)=O)CC[C@H]2[C@@H]3CCC4=CC(=NO)CC[C@@H]4[C@H]3CC[C@@]21CC (mixture of isomers) [norgestimate],Inhibition of TRPC6 currents,"[1]; 10 µM, whole-cell patch clamp, AlF4- infusion",almost completely inhibited
same,"Hill slope, TRPC6 current inhibition",[1]; fit to dose-response equation,1.19
same,IC50,"[1]; whole-cell patch clamp, AlF4- infusion, read-out: IC50, TRPC6 current inhibition",3.06 µM and ~3 µM
same,Reduction of AVP-induced receptor-operated cation currents,[2],86.5±6.0%
